Test results: ChEMBL document CHEMBL5724696, “Autophagy assay results for EUbOPEN Chemogenomics Library” (2024)

Legend:
Assay type in all cases: functional, Homo sapiens
TERT-RPE1 = experiment: (§1) Here: values are normalized to the negative (DMSO; defined as 0% autophagy induction) and positive (250nM Torin1; mTOR inhibitor; defined as maximal inducer of autophagy = 100%) control compounds and represented as % of autophagy induction. […] The impact of autophagy induction on cells is complex and depends on the affected target. As such, the magnitude of a phenotype may not be equally mirrored in the %-value of autophagy induction and vice versa. The dynamics of the induction may indicate the mode of activation: e.g. activation via phosphorylation or a signaling cascade may occur fast, while activation via transcription factors may take considerably longer. […] Of note, treatment concentrations may be sub-optimal for specific compounds, leading to false negative annotations.; settings: Culturing Media DMEM/F12 (1:1), 1 % Penicillin/Streptomycin, 10% Fetal bovin serum Add-On: No, Screening Media Control DMEM/F12 (1:1), Screening Media Samples DMEM/F12 (1:1)
U2OS [1] = experiment: as §1; settings: Culturing Media DMEM, 1 % Penicillin/Streptomycin, 10% Fetal bovin serum Add-On: No, Screening Media Control DMEM, Screening Media Samples DMEM
U2OS [2] = experiment: as §1; settings: Culturing Media DMEM, 1 % Penicillin/Streptomycin, 10% Fetal bovin serum Add-On: No, Screening Media Control DMEM, Screening Media Samples DMEM; remark: listed apart in the source
[3] = Compound Concentration 0.5 uM, Timepoint 12 hours
[4] = Compound Concentration 0.5 uM, Timepoint 24 hours
[5] = Compound Concentration 0.5 uM, Timepoint 36 hours
[6] = Compound Concentration 0.5 uM, Timepoint 60 hours
[7] = Compound Concentration 2 uM, Timepoint 12 hours
[8] = Compound Concentration 2 uM, Timepoint 24 hours
[9] = Compound Concentration 2 uM, Timepoint 36 hours
[10] = Compound Concentration 2 uM, Timepoint 60 hours
[11] = Compound Concentration 10 uM, Timepoint 12 hours
[12] = Compound Concentration 10 uM, Timepoint 24 hours
[13] = Compound Concentration 10 uM, Timepoint 36 hours
[14] = Compound Concentration 10 uM, Timepoint 60 hours

Compound	autophagy induction (TERT-RPE1; [3]) [%]	autophagy induction (TERT-RPE1; [4]) [%]	autophagy induction (TERT-RPE1; [5]) [%]	autophagy induction (TERT-RPE1; [6]) [%]	autophagy induction (TERT-RPE1; [7]) [%]	autophagy induction (TERT-RPE1; [8]) [%]	autophagy induction (TERT-RPE1; [9]) [%]	autophagy induction (TERT-RPE1; [10]) [%]	autophagy induction (TERT-RPE1; [11]) [%]	autophagy induction (TERT-RPE1; [12]) [%]	autophagy induction (TERT-RPE1; [13]) [%]	autophagy induction (TERT-RPE1; [14]) [%]	autophagy induction (U2OS [1]; [3]) [%]	autophagy induction (U2OS [1]; [4]) [%]	autophagy induction (U2OS [1]; [5]) [%]	autophagy induction (U2OS [1]; [6]) [%]	autophagy induction (U2OS [1]; [7]) [%]	autophagy induction (U2OS [1]; [8]) [%]	autophagy induction (U2OS [1]; [9]) [%]	autophagy induction (U2OS [1]; [10]) [%]	other results
O=C1N/C(=N/c2ccccc2F)S/C1=C\c1ccc(C(=O)O)cc1	-10.0262	-9.4115	-12.0012	-17.4269	-2.621	-7.325	-9.455	-13.9846	-9.926	-10.0998	-12.1834	-11.0664	1.731	0.03156	-1.478	0.04429	4.489	0.7124	-0.5769	0.3402	autophagy induction (U2OS [1]; [11]): -30.0859%; autophagy induction (U2OS [1]; [12]): -13.2121%; autophagy induction (U2OS [1]; [13]): -8.741%; autophagy induction (U2OS [1]; [14]): -4.602%; autophagy induction (U2OS [2]; [3]): -6.588%; autophagy induction (U2OS [2]; [4]): -6.026%; autophagy induction (U2OS [2]; [5]): -1.651%; autophagy induction (U2OS [2]; [6]): -8.214%; autophagy induction (U2OS [2]; [7]): 1.845%; autophagy induction (U2OS [2]; [8]): 3.048%; autophagy induction (U2OS [2]; [9]): 0.4254%; autophagy induction (U2OS [2]; [10]): -3.587%; autophagy induction (U2OS [2]; [11]): 7.038%; autophagy induction (U2OS [2]; [12]): 3.001%; autophagy induction (U2OS [2]; [13]): 3.146%; autophagy induction (U2OS [2]; [14]): -8.731%
CC(C)C[C@H](NC(=O)N1CCCCCC1)C(=O)N[C@H](Cc1cn(C)c2ccccc12)C(=O)N[C@H](Cc1ccccn1)C(=O)O	-9.746	-10.9738	-11.345	-17.0217	-8.2266	-8.649	-10.3216	-11.9295	-4.458	-5.829	-9.562	-13.6367	0.2891	0.184	-1.273	0.7204	2.596	1.655	-0.3512	-0.2043	autophagy induction (U2OS [1]; [11]): 5.448%; autophagy induction (U2OS [1]; [12]): 0.3648%; autophagy induction (U2OS [1]; [13]): -0.3169%; autophagy induction (U2OS [1]; [14]): 1.561%; autophagy induction (U2OS [2]; [3]): 4.132%; autophagy induction (U2OS [2]; [4]): 4.485%; autophagy induction (U2OS [2]; [5]): 3.039%; autophagy induction (U2OS [2]; [6]): -0.6751%; autophagy induction (U2OS [2]; [7]): 3.762%; autophagy induction (U2OS [2]; [8]): 6.744%; autophagy induction (U2OS [2]; [9]): 4.273%; autophagy induction (U2OS [2]; [10]): 0.0386%; autophagy induction (U2OS [2]; [11]): 4.084%; autophagy induction (U2OS [2]; [12]): 1.596%; autophagy induction (U2OS [2]; [13]): 3.219%; autophagy induction (U2OS [2]; [14]): 5.8133%
O=C(O)C1CN(Cc2ccc(OCc3ccc(Cl)c(Cl)c3)cc2)C1	-8.997	-11.1742	-13.4476	-16.3767	-4.026	-8.149	-12.0341	-15.552	-3.6803	-2.7744	-2.708	-2.7926	-1.025	-0.5625	-1.224	-0.01663	2.871	0.8864	0.6277	0.8248	autophagy induction (U2OS [1]; [11]): 1.474%; autophagy induction (U2OS [1]; [12]): 3.015%; autophagy induction (U2OS [1]; [13]): 1.861%; autophagy induction (U2OS [1]; [14]): 1.49%; autophagy induction (U2OS [2]; [3]): -6.393%; autophagy induction (U2OS [2]; [4]): -7.561%; autophagy induction (U2OS [2]; [5]): -8.567%; autophagy induction (U2OS [2]; [6]): -6.096%; autophagy induction (U2OS [2]; [7]): 2.736%; autophagy induction (U2OS [2]; [8]): -0.6379%; autophagy induction (U2OS [2]; [9]): 3.003%; autophagy induction (U2OS [2]; [10]): 6.192%; autophagy induction (U2OS [2]; [11]): 4.494%; autophagy induction (U2OS [2]; [12]): -1.815%; autophagy induction (U2OS [2]; [13]): -1.999%; autophagy induction (U2OS [2]; [14]): -2.676%
COC1CCN(c2cccc(-c3cc(NC(C)=O)nc(-n4nc(C)cc4C)n3)n2)CC1	-7.33	-8.964	-12.5665	-12.2397	-1.032	0.9672	2.277	7.2174	3.426	13.112	27.8595	52.8636	2.5303	-0.8923	-0.9403	0.4833	5.065	2.721	-0.07864	-0.6053	autophagy induction (U2OS [1]; [11]): 7.172%; autophagy induction (U2OS [1]; [12]): -0.05151%; autophagy induction (U2OS [1]; [13]): 0.1867%; autophagy induction (U2OS [1]; [14]): -2.376%; autophagy induction (U2OS [2]; [3]): 34.4556%; autophagy induction (U2OS [2]; [4]): 27.7724%; autophagy induction (U2OS [2]; [5]): 24.8838%; autophagy induction (U2OS [2]; [6]): 23.4921%; autophagy induction (U2OS [2]; [7]): -5.934%; autophagy induction (U2OS [2]; [8]): -0.6278%; autophagy induction (U2OS [2]; [9]): -1.762%; autophagy induction (U2OS [2]; [10]): -0.9306%; autophagy induction (U2OS [2]; [11]): -4.754%; autophagy induction (U2OS [2]; [12]): 3.79%; autophagy induction (U2OS [2]; [13]): 9.047%; autophagy induction (U2OS [2]; [14]): 19.3391%
